Series [1] has as its system rat skeletal muscle cell line, L6. The series is described as follows: cells. Type of series: cell-based. Conditions: rat, 71.5 h.
Series [2] concerns C. albicans (ATCC strain 90028). The series is described as follows: Antifungal microdilution broth assay (PrestoBlue), C. albicans. It counts as cell-based, Candida albicans. The settings on record: Candida albicans, ATCC90028, across C. albicans, C. glabrata, and C. tropicalis; read-out: IC50 values against Candida species. The method, boiled down:
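Inoculum of 1.5×10^3 cells/mL in RPMI-MOPS (0.165 M MOPS, pH 7.0), exposed to aurones for 24 h at 35 °C. Growth read by PrestoBlue (10% final) fluorescence at ex 560/em 590 nm.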
On the technique in general: Broth dilution looks for growth in wells or tubes with falling amounts of substance.

The test system of another series is C. gattii strains. The series is described as follows: CLSI micro-dilution MIC, C. gattii strains. It counts as cell-based. The settings on record: Cryptococcus gattii. As to the method:
(§1) The A27-M2 CLSI standard micro-dilution method was used to screen an aurone library (MTSU Department of Chemistry) for inhibition of Cryptococcus neoformans (Cn). Each aurone was screened in triplicate. […] Toxicity assays were conducted on human THP1 macrophages and L6 rat fibroblasts.
(§2) The inhibition of Cn strains and C. gattii strains by Aurone 9051 (also referred to as “Aurone X”) was characterized in different medias (including RPMI 1640 (Standard), RPMI 1640+MOPS, Asparagine media, minimal media, or yeast extract peptone dextrose (YPD) media), against other serotypes and strains, and at different cell concentrations. Synergy of the compounds with current drugs was characterized, and a growth curve experiment was conducted.

Series [3] deals with Cryptococcus neoformans (Cn). The series is described as follows: CLSI micro-dilution inhibition / MIC, Cryptococcus neoformans. It counts as cell-based. As to the method:
C. neoformans (strain 1199s) was prepared following CLSI guidelines for the organism (CLSI, Reference Method for Broth Dilution Antifungal Susceptibility Testing of Yeasts, Approved Standard-Third. Edition, Clinical Laboratory Standards Institute, Wayne, Pa., 2008).
as §1, §2

Another series has as its system p65 (NF-κB). The series is described as follows: Indirect immunofluorescence for NF-κB nuclear translocation, THP-1. It counts as cell-based, human. The settings on record: dose of 10 μM; THP-1, LPS 30 min. The source says:
Bay 11-7082 is a compound that inhibits LPS-induced activation of IKKα/β, thereby suppressing downstream IκBα phosphorylation/degradation and p65 nuclear translocation and was used as a positive control (Catalan, Fernandez-Castillejo et al. 2012). Treated cells were fixed, permeabilized, blocked, and stained with p65 (NF-κB) primary antibody, Dylight 488 conjugated secondary antibody, and Hoechst 33342 dye, sequentially. The Hoechst and DyLight fluorophores detect changes in nuclear morphology (blue fluorescence) and NF-κB distribution (green fluorescence), respectively. Nuclear Translocation Bioapplication software on the Arrayscan VTI reader was used for image acquisition and data analysis (Thermo Fisher Scientific, Waltham, Mass., USA). For each well, at least 400 cells were automatically acquired and analyzed. The translocation index was calculated by measuring the average intensity difference of NF-κB between the identified cytoplasmic region and nuclear region.

The test system of series [4] is PMA-differentiated THP-1 cells. The series is described as follows: Alamar Blue cell viability assay, THP-1. Conditions: THP-1 cells, 4 h with LPS, mean ± SD. Type of series: cell-based, human. As to the method: THP-1 cells were maintained in RPMI 1640 medium supplemented with 10% heat-inactivated FBS and 1% penicillin/streptomycin (complete culture medium) at 37° C. with 5% CO2 supplemented. Cell concentrations were adjusted to desired concentrations for each experiment by centrifugation at 500×g for 5 min and resuspended in complete culture medium with 100 nM of PMA. Cell concentration was adjusted to 5×10^5 cells/ml for all assays with the exception of 2.5×10^5 cells/ml were used for NF-κB nuclear translocation assay. Cells were seeded onto 96-, 24-, or 12-well plates and incubated for 48 to 72 h to allow for differentiation. Cells were washed with serum-free RPMI 1640 medium before each experiment to remove undifferentiated cells. […] Cells were seeded into tissue culture plates at 10% confluence and grown to 80% confluence within 72 h. For live cell microscopy, 1×10^5 cells/ml were seeded into 35 mm glass-bottom (MatTek) dishes 24 h prior to imaging. For luciferase assays, 1.2×10^5 cells/well were seeded into 24-well tissue culture-treated plates.
Following treatment, the relative cell viability was measured by Alamar Blue assay. For Alamar Blue assays, supernatants were replaced with culture medium containing 1× Alamar Blue reagent and incubated overnight. Cell viability was assessed by measuring relative fluorescent units (RFU) on the SpectraMax M2e microplate reader (Molecular Devices Inc., Sunnyvale, Calif., USA) at Ex 560 nm and Em 590 nm. The results were expressed as a percentage relative to LPS alone control cells. The effects of the vehicle control, DMSO, on cell viability were also assessed.
(§3) Dexamethasone is a synthetic glucocorticoid that suppresses LPS-induced pro-inflammatory cytokine expression and was used as a control (Abraham, Lawrence et al. 2006). Supernatants were collected for human cytokine ELISAs and the manufacturer's protocol was followed to assess the cytokine response. Cells remaining after the supernatant collection were tested for relative viability by Alamar Blue cytotoxicity assay as previously described.
In general terms: The colour change of resazurin is a common sign of viable cells or microbes.

Another series deals with TNFα. The series is described as follows: Cytokine response by ELISA, TNFα. Type of series: cell-based, human. The settings on record: for effect on TNFα expression: LPS-stimulated THP-1, ELISA. As for the experimental part:
as §3
(In an ELISA, binding on a coated surface is turned into a signal by an enzyme label.)

Where [5] appears, read: LPS-stimulated THP-1 cells, 20 μM, mean ± SD.

pIC50: −log10 of the molar value. Where two headings read alike, the source gives them in different places. Bounds are passed on as bounds.

Usually pIC50 stands for the IC50 on a negative log10 scale, so that one unit is a factor of ten. By MIC is commonly meant the lowest concentration found to suppress growth. Broadly, the melting point is the temperature of the solid-liquid transition.

As to `O=C1/C(=C/c2ccccn2)Oc2ccccc21` [Aurone 9051], the “toxicity to L6 rat fibroblasts” value in series [1] was greater than 100 µM. Besides, the pIC50 in series [2] is 4.74 to 5.00. The MIC in the series on C. gattii strains (read-out: MIC, C. gattii strain R265) is 25 µg/mL; with C. gattii strains (read-out: MIC, C. gattii strain R272), 25 µg/mL; in series [3] (10^3 cells, read-out: MIC, Cn), 25 µg/mL; in series [3] (10^4 cells, read-out: MIC, Cn) it was 50 µg/mL; in series [3] (10^5 cells, read-out: MIC, Cn), 100 µg/mL; in series [3] (C. neoformans 24067 (lab), serotype D, RPMI + MOPS, inoculum 2 × 10^3 CFU/ml) it was 112 µM. Further, the MIC is 112 µM in series [3] (C. neoformans B18 (clinical), serotype A, RPMI + MOPS, inoculum 2 × 10^3 CFU/ml); 112 µM in series [3] (C. neoformans B45 (clinical), serotype A, RPMI + MOPS, inoculum 2 × 10^3 CFU/ml); 56 µM in series [3] (C. neoformans B58 (clinical), serotype A, RPMI + MOPS, inoculum 2 × 10^3 CFU/ml, read-out: MIC); 112 µM in series [3] (C. neoformans B3501 (lab), serotype D, RPMI + MOPS, inoculum 2 × 10^3 CFU/ml); 112 µM in series [3] (C. neoformans H99S, serotype A, Asparagine media, inoculum 2 × 10^3 CFU/ml); greater than 4480 µM in series [3] (C. neoformans H99S, serotype A, Minimal media, inoculum 2 × 10^3 CFU/ml). Further, the minimal inhibitory concentration (MIC) was 112 µM in series [3] (C. neoformans H99S, serotype A, RPMI + MOPS, inoculum 2 × 10^3 CFU/ml); 224 µM in series [3] (C. neoformans H99S, serotype A, RPMI + MOPS, inoculum 2 × 10^4 CFU/ml); 448 µM in series [3] (C. neoformans H99S, serotype A, RPMI + MOPS, inoculum 2 × 10^5 CFU/ml); greater than 896 µM in series [3] (C. neoformans H99S, serotype A, YPD media, inoculum 2 × 10^3 CFU/ml); 112 µM in series [3] (C. neoformans JEC21 (lab), serotype D, RPMI + MOPS, inoculum 2 × 10^3 CFU/ml); 12.5 µg/mL in series [3] (in RPMI+MOPS, read-out: MIC, Cn). In addition, the MIC was greater than 200 µg/mL in series [3] (in YPD, read-out: MIC, Cn); 25 µg/mL in series [3] (in asparagine media, read-out: MIC, Cn); 110 µM in series [3] (running text b175, read-out: MIC against Cryptococcus neoformans).
With `Cc1ccc(S(=O)(=O)C=CC#N)cc1` [Bay 11-7082, 3-(4-methylphenylsulfonyl)-2-propenenitrile, reference compound], the “cytoplasmic-to-nuclear translocation of p65” value in the series with p65 (NF-κB) was “blocked p65 translocation”.
As for `O=C1/C(=C/c2ccccc2O)Oc2ccccc21` [aurone 4, (Z)-2-(2-hydroxybenzylidene)benzofuran-3(2H)-one], in series [4] (20 μM), the “Average % Viability (4 h with LPS)” value is 99.4 ± 0.5%. Moreover, the “effect on TNFα expression” value in the series on TNFα was “low activity”. For the same compound, the “Average % TNF-α Inhibition” value in the series on TNFα (setting [5]) is on record as “No Inhibition”.
For `COc1cc(/C=C2\Oc3ccccc3C2=O)ccc1O` [aurone 7, (Z)-2-(4-hydroxy-3-methoxybenzylidene)benzofuran-3(2H)-one], in that order: 97.0 ± 0.3%, “weaker activity” and “No Inhibition”.
On to `COc1cccc(/C=C2\Oc3ccccc3C2=O)c1O` [aurone 8, (Z)-2-(2-hydroxy-3-methoxybenzylidene)benzofuran-3(2H)-one], for which, in series [4] (20 μM), the “Average % Viability (4 h with LPS)” value is 101.3 ± 2.6%. In the series with TNFα, the “effect on TNFα expression” value is reported as “lack of activity”. The “Average % TNF-α Inhibition” value in the series with TNFα (LPS-stimulated THP-1 cells, 20 and 40 μM (one cell for all concentrations)) is reported as “No Inhibitions”.
In turn, `COc1ccc(/C=C2\Oc3ccccc3C2=O)cc1O` [aurone 9, (Z)-2-(3-hydroxy-4-methoxybenzylidene)benzofuran-3(2H)-one] displayed a melting point of 186 to 187 °C. Also, in series [4] (20 μM), the “Average % Viability (4 h with LPS)” value amounted to 101.8 ± 2.1%. For the same compound, the “effect on TNFα expression” value in the series on TNFα was “weaker activity”. The “Average % TNF-α Inhibition” value with TNFα (setting [5]) is given as “No Inhibition”.
For the compound `Cc1ccc(/C=C2\Oc3ccccc3C2=O)o1` [compound 2], the “Average % Viability (4 h with LPS)” value turned out to be 99.4 ± 9.3% in series [4] (25 μM), 118.3 ± 1.3% in series [4] (50 μM) and 108.9 ± 2.0% in series [4] (100 μM). In the series with TNFα, the “effect on TNFα expression” value is “complete loss of activity”. The “Average % TNF-α Inhibition” value in the series with TNFα (LPS-stimulated THP-1 cells, 25, 50 and 100 μM (one cell for all concentrations)) was “No Inhibitions”.
As to `O=C1/C(=C/c2ccco2)Oc2ccccc21` [compound 3], the “Average % Viability (4 h with LPS)” value in series [4] (12.5 μM) amounted to 104.3 ± 2.2%; in series [4] (25 μM) it was 102.1 ± 0.8%; in series [4] (50 μM), 92.2 ± 0.9%. For the same compound, in the series with TNFα, the “effect on TNFα expression” value was “complete loss of activity”. The “Average % TNF-α Inhibition” value with TNFα (LPS-stimulated THP-1 cells, 12.5, 25 and 50 μM (one cell for all concentrations)) was “No Inhibitions”.

The values above are taken from US20200399238A1, “THERAPEUTIC AURONES” (MIDDLE TENNESSEE STATE UNIVERSITY, priority 2016, published 2020).
